Laboratory results reported in the supplement of paper PMC3493320.

What follows are compounds tested on NCI-H295R (assay: IC50 (antiproliferative, ATP content)). Conditions: 48 h.
How it was run: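 Adrenocortical carcinoma cells were plated at 1500 per well in 1536-well plates in serum-free DMEM with ITS supplement, left overnight, then given library compounds by pin transfer at 8 final concentrations spanning 0.6 nM to 46 µM and held 48 h at 37 °C, 5% CO2. ATP was measured as CellTiter-Glo luminescence after 20 min at room temperature and scaled between vehicle and positive-control wells. A four-parameter logistic model was fitted to each series. The IC50 was taken from these fits, and compounds without a concentration response were recorded as above the top dose.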

Row | SMILES | IC50
1 | N/C(N)=N/C1=NC(CSCCC(N)=NS(N)(=O)=O)=CS1 | > 46 µM
2 | NC(=O)c1cccnc1 | > 46 µM
3 | CN1C(=S)CN=C(c2ccccc2)c2cc(Cl)ccc21 | > 46 µM
4 | NCC(O)CC(=O)O (stereo not drawn) | > 46 µM
5 | O=C(O)CP(=O)(O)O | > 46 µM
6 | CCN[C@H]1CN(CCCOC)S(=O)(=O)c2sc(S(N)(=O)=O)cc21 | > 46 µM
7 | CCN(CC)CC#CCOC(=O)C(O)(c1ccccc1)C1CCCCC1.Cl (stereo not drawn) | > 46 µM
8 | CC(=O)Oc1c(C)c(C)c2c(c1C)CC[C@@](C)(CCC[C@H](C)CCC[C@H](C)CCCC(C)C)O2 | > 46 µM
9 | CC(C)(CO)C(O)C(=O)NCCC(=O)NCCSSCCNC(=O)CCNC(=O)C(O)C(C)(C)CO (stereo not drawn) | > 46 µM
10 | CC=Cc1ccc(O)c(OC)c1 | > 46 µM
11 | O=C1Nc2ccc(Cl)cc2C(c2ccccc2)=NC1O (stereo not drawn) | > 46 µM
12 | CO/N=C(\C(=O)N[C@@H]1C(=O)N2C(C(=O)O)=C(CSc3cnns3)CS[C@H]12)c1csc(N)n1.Cl | > 46 µM
13 | O=[C@](O)[C@@H]1[C@@H](CC(O)=O)[C@@H]([C@](C)=C)CN1 | > 46 µM
14 | CCN(CC)CCOC(=O)C(c1ccccc1)c1ccccc1.Cl | > 46 µM
15 | [NH2][Pt]1([NH2])[O]C(=O)C2(CCC2)C(=O)[O]1 | > 46 µM
16 | COc1ccccc1OCC(O)CN1CCN(CC(=O)Nc2c(C)cccc2C)CC1 (stereo not drawn) | > 46 µM
17 | Cc1c(F)c(N2CCNC(C)C2)cc2c1c(=O)c(C(=O)O)cn2C1CC1.Cl (stereo not drawn) | > 46 µM
18 | CNC(=O)Oc1ccccc1C(=O)Nc1ccccc1 | > 46 µM
19 | Nc1nc2c(ncn2COC(CO)CO)c(=O)[nH]1 | > 46 µM
20 | CO[C@H]1C=CO[C@@]2(C)Oc3c(C)c(O)c4c(c3C2=O)C2=NC3(CCN(CC(C)C)CC3)NC2=C(NC(=O)/C(C)=C\C=C\[C@H](C)[C@H](O)[C@@H](C)[C@@H](O)[C@@H](C)[C@H](OC(C)=O)[C@@H]1C)C4=O | > 46 µM
21 | CS(=O)(=O)c1ccc([C@@H](O)[C@@H](CO)NC(=O)C(Cl)Cl)cc1 | > 46 µM
22 | NC(=O)c1cc[n+](CC2=C(C(=O)[O-])N3C(=O)[C@@H](NC(=O)[C@H](c4ccccc4)S(=O)(=O)[O-])[C@@H]3SC2)cc1.[Na+] | > 46 µM

Row | SMILES | IC50
23 | Cc1cccc(C)c1NC(=O)NC1=CCCN1C | > 46 µM
24 | CS(=O)(=O)O.Cc1ccc2c(c1)c1c3n2CCNC3CCC1 (stereo not drawn) | > 46 µM
25 | CC(C)C[C@@H](N)C(=O)O | > 46 µM
26 | [O-]S(=O)(=O)OC.C[N+]1(C)CC\C(CC1)=C(\c2ccccc2)c3ccccc3 | > 46 µM
27 | CCCCC(CC)COC(=O)C=Cc1ccc(OC)cc1 (stereo not drawn) | > 46 µM
28 | CN1CCN(C2=Nc3ccccc3Oc3ccc(Cl)cc32)CC1.O=C(O)CCC(=O)O | > 46 µM
29 | CCN(C)C(=O)Oc1cccc([C@H](C)N(C)C)c1.O=C(O)[C@@H](O)[C@H](O)C(=O)O | > 46 µM
30 | CN(C)C(Cc1ccccc1)c1ccccc1 (stereo not drawn) | > 46 µM
31 | CN(C)CCc1ccc(O)cc1 | > 46 µM
32 | C[C@H]1[C@H]2CC[C@H]3[C@@H]4CC=C5C[C@@H](N(C)C)CC[C@]5(C)[C@H]4CC[C@]23CN1C | > 46 µM
33 | Cc1cccc(C)c1NC(=O)C(C)N.Cl (stereo not drawn) | > 46 µM
34 | O=C(Cn1ccnc1[N+](=O)[O-])NCCO | > 46 µM
35 | CCC(C(=O)OCCN(CC)CC)c1ccccc1 (stereo not drawn) | > 46 µM
36 | NC(N)=O | > 46 µM
37 | C[C@]12CC[C@@H]3c4ccc(O)cc4C[C@@H](CCCCCCCCCS(=O)CCCC(F)(F)C(F)(F)F)[C@H]3[C@@H]1CC[C@@H]2O (stereo partly drawn) | > 46 µM
38 | CN1CCN(CCC(=O)N2c3ccccc3Sc3ccc(C(F)(F)F)cc32)CC1 | > 46 µM
39 | O[C@H]1[C@H]2[C@H](O)CCCN2C[C@H]1O | > 46 µM
40 | CC(=O)NO | > 46 µM
41 | NC(=O)NS(=O)(=O)c1ccc(N)cc1 | > 46 µM
42 | O=S1(=O)OC(c2ccc(O)cc2)(c2ccc(O)cc2)c2ccccc21 | > 46 µM
43 | CCCNC(C)C(=O)Nc1ccccc1C.Cl (stereo not drawn) | > 46 µM
